Literature values as cited in US8288116B2, “Methods and compositions for isolating metastatic cancer cells, and use in measuring metastatic potential of a cancer thereof” (The Research Foundation of State University of New York, priority 2000, dated 2012).

Test system: patients with cancer
Details: trials in patients with cancer

| Molecule | anti-metastatic, anti-invasive effects |
| --- | --- |
| endostatin | not produced obvious evidence |
| CC1(C)SCCN(S(=O)(=O)c2ccc(Oc3ccncc3)cc2)[C@H]1C(=O)NO [AG3340] | not produced obvious evidence |
| angiostatin | not produced obvious evidence |
| CNC(=O)[C@@H](NC(=O)[C@H](CC(C)C)[C@H](O)C(=O)NO)C(C)(C)C [Marimastat] | not produced obvious evidence |
